Where two headings read alike, the source gives them in different places.
Experiments:
MYXV [1] = assay: MYXV-GFP infection rate in RK13 cells (high content microscopy); conditions: for IC50: MYXV in RK13 cells; for Inhibition of MYXV infection rate (in words): RK13 cells
Procedure: RK13 (rabbit epitelial kidney) cells were used for MYXV infection assay.
Cells were grown in 200 μL Dulbecco's Modified Eagle's medium (DMEM) without phenol red (Sigma-Aldrich), 10% SVF, Pen-strep, 1× sodium pyruvate, 1× Glutamax.
RK13 cells at MOI 0.5 48 h post-infection (PI) are fixed with Formalin 10 min at room temperature. Wash with 200 μL PBS and 100 μL PBS/Hoechst 33342 (1/1000) per well. 96 well plates are kept at 4° C. in the dark until data acquisition. Image acquisition and analysis for high content quantification is performed on a Thermo Cellomics Arrayscan VTI microscope using a modified compartmental analysis algorithm.
RK13 cells for the toxicity study and RK13 cells at MOI 0.01 6 days PI are fixed and image acquisition and analysis are performed as previously described.
On 48 h and 6d post-infection, data acquisition was done by high content microscopy to calculate infection level according to compound concentration.

MYXV [2] = assay: Lysis plaque analysis in RK13 infected with MYXV; assay type: cell-based, Myxoma virus; conditions: 6d PI
Procedure: Lysis plaque analysis was carried out in RK13 infected with MYXV 6d PI. Lysis plaques area and number of lysis plaques were assessed directly on microscope pictures (FIG. 4).

[3] = read-out: IC50 (48 h PI), MOI 0.5, 48 h post-infection
[4] = read-out: IC50 (6 d PI), MOI 0.01, 6 days post-infection

SMILES | IC50 (MYXV [1]; [3]) [nM] | IC50 (MYXV [1]; [4]) [nM] | Area in cm^2 of lysis plaques (MYXV [2]; concentration 0.37 μM) [cm^2] | Number of lysis plaques (MYXV [2]; concentration 0.37 μM) | Area in cm^2 of lysis plaques (MYXV [2]; concentration 0.75 μM) [cm^2] | Number of lysis plaques (MYXV [2]; concentration 0.75 μM) | Number of lysis plaques (MYXV [2]; concentration 1.5 μM) | Number of lysis plaques (MYXV [2]; concentration 3.1 μM) | CC50 (RK13 cells) [nM] | Inhibition of MYXV infection rate (in words) (MYXV [1])
O=[N+]([O-])c1ccc(F)c(-c2c3nc(c4ccc([nH]4)c(-c4cc([N+](=O)[O-])ccc4F)c4ccc([nH]4)c(-c4cc([N+](=O)[O-])ccc4F)c4ccc2[nH]4)C=C3)c1 [FNO2Cor, 5,10,15-Tris(2-fluoro-5-nitrophenyl)corrole] | 1330 | 500 | 8 | 5 | 3.4 | 6 | 1.3 | 0 | 3740 | –
Fc1c(F)c(F)c(-c2c3nc(c4ccc([nH]4)c(-c4c(F)c(F)c(F)c(F)c4F)c4ccc([nH]4)c(-c4c(F)c(F)c(F)c(F)c4F)c4ccc2[nH]4)C=C3)c(F)c1F [TPFCor, 5,10,15-Tris(pentafluorophenyl)corrole] | 270 | 120 | 6 | 6.7 | – | 6 | 3.3 | 4 | 6680 | better in vitro anti-MYXV effect than FNO2Cor
O=[N+]([O-])c1ccc(-c2c3nc(c4ccc([nH]4)c(-c4ccc([N+](=O)[O-])cc4)c4ccc([nH]4)c(-c4ccc([N+](=O)[O-])cc4)c4ccc2[nH]4)C=C3)cc1 [TpNO2Cor, 5,10,15-Tris(4-nitrophenyl)corrole] | 430 | 200 | 9 | 4 | 3.4 | 6.7 | 2.7 | 0 | 4360 | better in vitro anti-MYXV effect than FNO2Cor
